Experimental data published in patent publication US20210255193A1, “LYSINE REACTIVE PROBES AND USES THEREOF” (The Scripps Research Institute, priority 2017, published 2021).

Experiments:
[1] = biological target: T1, lysine residues in human cell proteomes (MDA-MB-231, Ramos, Jurkat) (Homo sapiens, UniProt Q9NVS9); assay: isoTOP-ABPP lysine reactivity profiling (0.1 vs 1 mM probe 1); assay type: binding; details: PNPO K100; 1 mM vs 0.1 mM probe 1
T1 construct: endogenous in cells; host or cells: MDA-MB-231, Ramos, Jurkat lysates
T1 sequence (Q9NVS9 whole entry): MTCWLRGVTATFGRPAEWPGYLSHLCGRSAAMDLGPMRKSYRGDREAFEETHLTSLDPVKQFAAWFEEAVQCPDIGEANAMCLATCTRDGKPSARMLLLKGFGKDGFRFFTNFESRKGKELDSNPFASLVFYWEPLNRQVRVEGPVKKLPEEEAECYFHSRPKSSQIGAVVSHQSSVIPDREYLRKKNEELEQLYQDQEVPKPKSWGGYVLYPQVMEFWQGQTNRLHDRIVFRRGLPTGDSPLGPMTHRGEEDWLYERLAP
Protocol: (§1) STP-alkyne labeling and click chemistry. For concentration-dependent reactivity measurements by isoTOP-ABPP, 0.5 ml proteome aliquots were treated at ambient temperature with 1 mM STP-alkyne 1 (5 μl of 100 mM stock in DMSO) and 0.1 mM STP alkyne 1 (5 μl of 10 mM stock in DMSO), respectively. For competitive isoTOP-ABPP, after in vitro fragment treatment (detailed above), the samples were labeled for 1 h at ambient temperature with 0.1 mM STP-alkyne 1 (5 μl of 10 mM stock in DMSO). Samples were conjugated by copper-mediated azide-alkyne cycloaddition (CuAAC) to either the light (1 mM STP-alkyne or fragment treated) or heavy (0.1 mM STP-alkyne or DMSO treated) TEV tags (10 μl of 5 mM stocks in DMSO, final concentration=100 μM) using tris(2-carboxyethyl)phosphine hydrochloride
(§2) R value calculation and processing. The ratios of light and heavy MS1 peaks for each unique peptide were quantified with a CIMAGE software using default parameters (3 MS1 acquisitions per peak and signal to noise threshold set to 2.5). For reactivity measurements by isoTOP-ABPP, the R value was calculated from the ratio of MS1 peak areas, comparing the 1 mM STP alkyne sample (light TEV tag) with the 0.1 mM STP alkyne sample (heavy TEV tag). For competitive isoTOP-ABPP, the R value was calculated from the ratio of MS1 peak areas, comparing the DMSO treated sample (heavy TEV tag) with the compound treated sample (light TEV tag). […] Ratios for unique peptide entries are calculated for each experiment; overlapping peptides with the same modified lysine (for example, different charge states, MudPIT chromatographic steps or tryptic termini) are grouped together and the median ratio is reported as the final ratio (R). The peptide ratios reported by CIMAGE were further filtered to ensure the removal or correction of low-quality ratios in each individual data set. […]
(§3) Cross-data processing for reactivity profiling. For reactivity profiling, the median of biological replicates of the same condition and cell-line was calculated. For peptides containing several possible modified lysines, the lysine with the highest number of quantification events was used for analysis and the remaining, redundant peptides were reported as alternative modification sites. Peptides were required to be detected in at least one 1 mM vs 0.1 mM and one 0.1 mM vs 0.1 mM data set with the latter R value being smaller than 2.5. […] If the lysine was not detected in any soluble fraction, the R value from the membrane fraction was taken. Additionally, all membrane-only lysines with reactivity values were further required to have been detected in at least one 0.1 mM vs 0.1 mM membrane profiling experiment. […]
(§4) Here, the intrinsic reactivity of lysine residues was assessed in human cell proteomes. In brief, proteomes from three human cancer cell lines were treated (MDA-MB-231, Ramos, and Jurkat cells) with low vs high concentrations of probe 1 (0.1 vs 1 mM, n=4 per group) for 1 h and then analyzed the samples by isoTOP-ABPP, wherein high, medium, and low reactivity lysines were distinguished by their respective isotopic ratio values (R10:1<2, 2<R10:1<5, R10:1>5, respectively). […]

[2] = test system: lysine residues in human cell proteomes (MDA-MB-231, Ramos, Jurkat); assay: as above; assay type: binding
Protocol: as §1, §2, §3, §4

R10:1 lysine reactivity ratio [1]: 0.7
Structure (SMILES): C#CCCC(=O)Oc1c(F)c(F)c(S(=O)(=O)[O-])c(F)c1F.[Na+] [probe 1, reference compound]
selectivity for lysine modification over other amino acids ([2]; 1 mM probe): excellent selectivity for lysine modification over other amino acids | hyper-reactive lysines (R10:1 <2), total residues ([2]; 0.1 vs 1 mM probe 1, 1 h): 310 | quantified lysines with R10:1 values = 10 (low intrinsic reactivity) ([2]; 0.1 vs 1 mM probe 1, 1 h): > 50% | quantified lysines with hyper-reactivity with probe 1 (R10:1 values <2) ([2]; 0.1 vs 1 mM probe 1, 1 h): < 10%
